{
  "source": "patent US3978211A",
  "about": "“Lipiarmycin and its preparation” (Gruppo Lepetit S.p.A., priority 1973, dated 1976)",
  "key": {"[1]": {"test_system": "Staphylococcus aureus ATCC 6538 resistant to bacitracin", "test": "Minimum inhibitory concentration, resistant strain (Table II)", "assay_type": "cell-based", "conditions": "S. aureus ATCC 6538 resistant to bacitracin", "excerpt": "(§1) Lipiarmycin is also active against strains which are resistant to other antibiotics which are widely used in chemotherapeutic practice. As a representative example, in the following table the minimum inhibitory concentrations (M.I.C.), γ/ml., of lipiarmycin against Staphylococcus aureus strains resistant to several antibiotics are reported."}, "[2]": {"test_system": "Staphylococcus aureus ATCC 6538 resistant to cephaloridine", "test": "Minimum inhibitory concentration, resistant strain (Table II)", "assay_type": "cell-based", "excerpt": "as §1"}, "[3]": {"test_system": "Staphylococcus aureus ATCC 6538 resistant to chloramphenicol", "test": "Minimum inhibitory concentration, resistant strain (Table II)", "assay_type": "cell-based", "excerpt": "as §1"}, "[4]": {"test_system": "Staphylococcus aureus ATCC 6538 resistant to erythromycin", "test": "Minimum inhibitory concentration, resistant strain (Table II)", "assay_type": "cell-based", "excerpt": "as §1"}, "[5]": {"test_system": "Staphylococcus aureus ATCC 6538 resistant to novobiocin", "test": "Minimum inhibitory concentration, resistant strain (Table II)", "assay_type": "cell-based", "excerpt": "as §1"}, "[6]": {"test_system": "Staphylococcus aureus ATCC 6538 resistant to oleandomycin", "test": "Minimum inhibitory concentration, resistant strain (Table II)", "assay_type": "cell-based", "excerpt": "as §1"}, "[7]": {"test_system": "Staphylococcus aureus ATCC 6538 resistant to penicillin", "test": "Minimum inhibitory concentration, resistant strain (Table II)", "assay_type": "cell-based", "excerpt": "as §1"}, "[8]": {"test_system": "Staphylococcus aureus ATCC 6538 resistant to streptomycin", "test": "Minimum inhibitory concentration, resistant strain (Table II)", "assay_type": "cell-based", "excerpt": "as §1"}, "[9]": {"test_system": "Staphylococcus aureus ATCC 6538 resistant to tetracycline", "test": "Minimum inhibitory concentration, resistant strain (Table II)", "assay_type": "cell-based", "excerpt": "as §1"}, "[10]": {"conditions": "pH 7"}, "[11]": {"test_system": "Streptococcus hemolyticus C203", "test": "Minimal inhibitory concentration", "assay_type": "cell-based", "excerpt": "(§2) The antibiotic substance of the invention is active against bacteria, and in particular against the following microorganisms at the indicated concentrations."}, "[12]": {"test_system": "Staphylococcus aureus Tour", "test": "Minimal inhibitory concentration", "assay_type": "cell-based", "excerpt": "as §2"}, "[13]": {"test_system": "Mycoplasma gallisepticum H 21 C.Z.B.", "test": "Minimal inhibitory concentration", "assay_type": "cell-based", "excerpt": "as §2"}, "[14]": {"test_system": "Streptococcus mutans ATCC 25175", "test": "Minimal inhibitory concentration", "assay_type": "cell-based", "excerpt": "as §2"}, "[15]": {"test_system": "Staphylococcus aureus ATCC 6538", "test": "Minimal inhibitory concentration", "assay_type": "cell-based", "excerpt": "as §2"}, "[16]": {"test_system": "Mycobacterium tub. H37Rv ATCC 9360", "test": "Minimal inhibitory concentration", "assay_type": "cell-based", "excerpt": "as §2"}, "[17]": {"test_system": "Diplococcus pneumoniae UC 41", "test": "Minimal inhibitory concentration", "assay_type": "cell-based", "excerpt": "as §2"}, "[18]": {"assay_type": "physicochemical", "conditions": "methyl cellosolve", "excerpt": "An ionizable function is spectrophotometrically evidenced with pKa (in methyl cellosolve): 6.8"}, "mice": {"test_system": "mice", "test": "Toxicity, LD50 i.p. in mice"}, "[19]": {"test_system": "Staphylococcus aureus ATCC 6538 resistant to streptothricin", "test": "Minimum inhibitory concentration, resistant strain (Table II)", "assay_type": "cell-based", "conditions": "S. aureus ATCC 6538 resistant to streptothricin", "excerpt": "as §1"}, "[20]": {"test_system": "Staphylococcus aureus ATCC 6538 resistant to neomycin", "test": "Minimum inhibitory concentration, resistant strain (Table II)", "assay_type": "cell-based", "conditions": "S. aureus ATCC 6538 resistant to neomycin", "excerpt": "as §1"}, "[21]": {"conditions": "Staphylococcus aureus, ATCC6538, read-out: M.I.C. of other antibiotics"}},
  "note": "Residues, ends and D or L forms follow the SMILES beside them.",
  "data": [
    {"compound": "CC[C@H](C)[C@H](N)C1=N[C@H](C(=O)N[C@@H](CC(C)C)C(=O)N[C@H](CCC(=O)O)C(=O)N[C@H](C(=O)N[C@H]2CCCCNC(=O)[C@H](CC(N)=O)NC(=O)[C@@H](CC(=O)O)NC(=O)[C@H](Cc3cnc[nH]3)NC(=O)[C@@H](Cc3ccccc3)NC(=O)[C@H]([C@@H](C)CC)NC(=O)[C@@H](CCCN)NC2=O)[C@@H](C)CC)CS1", "note": "[bacitracin, reference compound] (HELM PEPTIDE1{[CC[C@H](C)[C@H](N)C1=N[C@H](C(=O)[*:2])CS1].L.[dE].I.K.[NCCC[C@@H](N[*:1])C(=O)[*:2]].I.[dF].H.[dD].N}$PEPTIDE1,PEPTIDE1,5:R3-11:R2$$$V2.0)", "values": [
      {"measurement": "M.I.C. of other antibiotics", "setting": "[1]", "result": "> 100", "unit": "µg/mL"}
    ]},
    {"compound": "O=C(Cc1cccs1)N[C@@H]1C(=O)N2C(C(=O)[O-])=C(C[n+]3ccccc3)CS[C@H]12", "note": "[cephaloridine, reference compound]", "values": [
      {"measurement": "MIC", "setting": "[2]; [21]", "result": "> 100", "unit": "µg/mL"}
    ]},
    {"compound": "O=C(N[C@H](CO)[C@H](O)c1ccc([N+](=O)[O-])cc1)C(Cl)Cl", "note": "[chloramphenicol, reference compound]", "values": [
      {"measurement": "MIC", "setting": "[3]; [21]", "result": "> 100", "unit": "µg/mL"}
    ]},
    {"compound": "CC[C@H]1OC(=O)[C@H](C)[C@@H](O[C@H]2C[C@@](C)(OC)[C@@H](O)[C@H](C)O2)[C@H](C)[C@@H](O[C@@H]2O[C@H](C)C[C@H](N(C)C)[C@H]2O)[C@](C)(O)C[C@@H](C)C(=O)[C@H](C)[C@@H](O)[C@]1(C)O", "note": "[erythromycin, reference compound]", "values": [
      {"measurement": "MIC", "setting": "[4]; [21]", "result": "> 100", "unit": "µg/mL"}
    ]},
    {"compound": "CO[C@@H]1[C@@H](OC(N)=O)[C@@H](O)[C@H](Oc2ccc3c(O)c(NC(=O)c4ccc(O)c(CC=C(C)C)c4)c(=O)oc3c2C)OC1(C)C", "note": "[novobiocin, reference compound]", "values": [
      {"measurement": "MIC", "setting": "[5]; [21]", "result": "> 100", "unit": "µg/mL"}
    ]},
    {"compound": "CO[C@H]1C[C@H](O[C@H]2[C@H](C)[C@@H](O[C@@H]3O[C@H](C)C[C@H](N(C)C)[C@H]3O)[C@@H](C)C[C@@]3(CO3)C(=O)[C@H](C)[C@@H](O)[C@@H](C)[C@@H](C)OC(=O)[C@@H]2C)O[C@@H](C)[C@@H]1O", "note": "[oleandomycin, reference compound]", "values": [
      {"measurement": "MIC", "setting": "[6]; [21]", "result": 50, "unit": "µg/mL"}
    ]},
    {"compound": "CC1(C)S[C@@H]2[C@H](NC(=O)Cc3ccccc3)C(=O)N2[C@H]1C(=O)O", "note": "[penicillin, reference compound]", "values": [
      {"measurement": "MIC", "setting": "[7]; [21]", "result": "> 100", "unit": "µg/mL"}
    ]},
    {"compound": "[H]/N=C(/N)N[C@H]1[C@H](O)[C@@H](O)[C@H](O[C@@H]2O[C@@H](C)[C@](O)(C=O)[C@H]2O[C@@H]2O[C@@H](CO)[C@H](O)[C@@H](O)[C@@H]2NC)[C@@H](N/C(N)=N\\[H])[C@@H]1O", "note": "[streptomycin, reference compound]", "values": [
      {"measurement": "MIC", "setting": "[8]; [21]", "result": "> 100", "unit": "µg/mL"}
    ]},
    {"compound": "CN(C)[C@@H]1C(O)=C(C(N)=O)C(=O)[C@@]2(O)C(O)=C3C(=O)c4c(O)cccc4[C@@](C)(O)[C@H]3C[C@@H]12", "note": "[tetracycline, reference compound]", "values": [
      {"measurement": "MIC", "setting": "[9]; [21]", "result": "> 100", "unit": "µg/mL"}
    ]},
    {"compound": "lipiarmycin", "values": [
      {"measurement": "Solubility", "setting": "[10]", "result": "Sparingly soluble to insoluble"},
      {"measurement": "MINIMAL INHIBITORY CONCENTRATION", "setting": "[11]", "result": 10, "unit": "µg/mL"},
      {"measurement": "MINIMAL INHIBITORY CONCENTRATION", "setting": "[12]; Staphylococcus aureus Tour with 10 percent bovine serum", "result": 10, "unit": "µg/mL"},
      {"measurement": "MINIMAL INHIBITORY CONCENTRATION", "setting": "[12]; Staphylococcus aureus Tour, without serum", "result": 2, "unit": "µg/mL"},
      {"measurement": "MINIMAL INHIBITORY CONCENTRATION", "setting": "[13]", "result": 50, "unit": "µg/mL"},
      {"measurement": "MINIMAL INHIBITORY CONCENTRATION", "setting": "[14]", "result": 0.5, "unit": "µg/mL"},
      {"measurement": "MINIMAL INHIBITORY CONCENTRATION", "setting": "[15]", "result": 2, "unit": "µg/mL"},
      {"measurement": "MINIMAL INHIBITORY CONCENTRATION", "setting": "[16]", "result": 50, "unit": "µg/mL"},
      {"measurement": "MINIMAL INHIBITORY CONCENTRATION", "setting": "[17]", "result": 50, "unit": "µg/mL"},
      {"measurement": "pKa", "setting": "[18]", "result": 6.8},
      {"measurement": "LD50", "setting": "mice", "result": "about 500 mg./kg."},
      {"measurement": "M.I.C. of lipiarmycin", "setting": "[9]; S. aureus ATCC 6538 resistant to tetracycline", "result": 5, "unit": "µg/mL"},
      {"measurement": "M.I.C. of lipiarmycin", "setting": "[19]", "result": 5, "unit": "µg/mL"},
      {"measurement": "M.I.C. of lipiarmycin", "setting": "[1]", "result": 5, "unit": "µg/mL"},
      {"measurement": "M.I.C. of lipiarmycin", "setting": "[20]", "result": 2, "unit": "µg/mL"},
      {"measurement": "M.I.C. of lipiarmycin", "setting": "[2]; S. aureus ATCC 6538 resistant to cephaloridine", "result": 5, "unit": "µg/mL"},
      {"measurement": "M.I.C. of lipiarmycin", "setting": "[8]; S. aureus ATCC 6538 resistant to streptomycin", "result": 5, "unit": "µg/mL"},
      {"measurement": "M.I.C. of lipiarmycin", "setting": "[5]; S. aureus ATCC 6538 resistant to novobiocin", "result": 2, "unit": "µg/mL"},
      {"measurement": "M.I.C. of lipiarmycin", "setting": "[4]; S. aureus ATCC 6538 resistant to erythromycin", "result": 5, "unit": "µg/mL"},
      {"measurement": "M.I.C. of lipiarmycin", "setting": "[3]; S. aureus ATCC 6538 resistant to chloramphenicol", "result": 2, "unit": "µg/mL"},
      {"measurement": "M.I.C. of lipiarmycin", "setting": "[6]; S. aureus ATCC 6538 resistant to oleandomycin", "result": 5, "unit": "µg/mL"},
      {"measurement": "M.I.C. of lipiarmycin", "setting": "[7]; S. aureus ATCC 6538 resistant to penicillin", "result": 2, "unit": "µg/mL"}
    ]},
    {"compound": "neomycin [reference compound]", "values": [
      {"measurement": "M.I.C. of other antibiotics", "setting": "[20]", "result": "> 100", "unit": "µg/mL"}
    ]},
    {"compound": "streptothricin [reference compound]", "values": [
      {"measurement": "M.I.C. of other antibiotics", "setting": "[19]", "result": "> 100", "unit": "µg/mL"}
    ]}
  ]
}
